Data published in patent US9957546B2, “Vivo detection of phospholipase activation” (THE TRUSTEES OF THE UNIVERSITY OF PENNSYLVANIA, priority 2008, dated 2018).

Key:
DU145 prostate cells = assay: Cell uptake and in situ activation, laser confocal microscopy; assay type: cell-based, human; details: 10 mM PB, 6 h
PC-PLC [1] = details: Amplex Red, resorufin fluorescence
Text: To validate the presence of PC-PLC activity in DU145 tumor xenografts, the Amplex Red PC-PLC assay kit (Molecular Probes) was used to measure PC-PLC activity in extracts of excised tumors.

PC-PLC [2] = biological target: PC-PLC (Bacillus cereus, UniProt P09598)
Chain of PC-PLC (Bacillus cereus, UniProt P09598) (P09598 39-283 limits assumed): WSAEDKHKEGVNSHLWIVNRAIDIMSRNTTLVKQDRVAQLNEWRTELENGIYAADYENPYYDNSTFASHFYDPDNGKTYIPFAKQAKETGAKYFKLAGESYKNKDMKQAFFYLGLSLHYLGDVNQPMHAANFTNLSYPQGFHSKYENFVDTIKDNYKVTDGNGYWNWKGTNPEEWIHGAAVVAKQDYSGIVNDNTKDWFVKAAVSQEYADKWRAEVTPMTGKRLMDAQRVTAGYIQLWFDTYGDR
Experimental: Phospholipase (0.5 to 5 units) are added to 1 μM fluorophore-BHQ in PtdCho vesicles_(MF=0.05) to yield a final volume of 100 μL. Initial velocities are measured as a function of enzyme concentration. For bulk kinetics, an enzyme concentration that gives a linear response is chosen. The lipid dispersions is diluted in buffer such that the fluorophore-BHQ concentration varies from 0.3-3 μM. The temperature is held at 37° C. and phospholipase added to a total volume of 100 μL. The released fluorescence is measured and the initial velocities recorded as a function of bulk lipid concentration. A Lineweaver-Burke plot of 1/V0 vs 1/[S] gives a straight line with […] and y intercept of 1/Vmax. For interfacial kinetics, lipid dispersions of fluorophore-BHQ and PtdCho are diluted in Triton X-100 with the total lipid concentration held at 20 μM. The ratios of fluorophore-BHQ to PtdCho are held constant, but varied relative to the MF of Triton with a total MF of fluorophore-BHQ of =0.01-0.05). Initial velocities are recorded as a function of concentration, and kinetic parameters are calculated.
Activity, in RFU/min/mg, was measured as a function of D609 concentration after the addition of 0.5 U PC-PLC (FIG. 2D).

[3] = Quenching of Pyro fluorescence (fluorescence emission spectra); assay type: physicochemical
Text: In Pyro-PL-BHQ, BHQ acts as an effective quencher of Pyro fluorescence, reducing the fluorescence emission relative to Pyro-PL between 25-fold (for λex=675, λem=725 nm) and 45-fold (for λex=418, λem=695 nm) (FIG. 14).

[4] = Tolerability of Pyro-PL in mice; assay type: in vivo
[5] = Incorporation of Pyro-PL into PtdCho vesicles (self quenching/aggregation); assay type: physicochemical; details: 1 μM Pyro-PL, [PtdCho]>200 μM
Experimental: A measured amount of Pyro-PL-BHQ or Pyro-PL (ε=110,000 M^−1 cm^−1 at 410 nm) was combined with PtdCho (chicken egg, Avanti Polar Lipids, Inc., Alabaster, Ala.) in chloroform and dried under a stream of nitrogen.
In order to determine the mole fraction (MF) at which all fluorophore can be assumed to be completely incorporated and intercalated into the PtdCho vesicles, an experiment was conducted in which the concentration of PtdCho was varied while Pyro-PL concentration was held constant at 1 μM (FIG. 4A). The fluorescence intensity increases as the Pyro-PL disperses into the PtdCho vesicles. The fluorescence plateaus at the point at which aggregation is negligible.

[6] = In vivo distribution of Pyro-PL (Maestro spectral deconvolution, ex vivo IVIS organ imaging); set-up: species or system mice
Experimental: Methods for separation of probe fluorescence and autofluorescence have been developed that result in a more accurate detection of in vivo probe fluorescence. In FIG. 11, mice injected with the permanently fluorescent Pyro-PL are imaged with the CRI Maestro System, and the resulting images resolved into probe and autofluorescence on the basis of emission spectrum deconvolution. These images confirm that Pyro-PL localizes in the tumor within minutes, and persists for about 3 hours, consistent with FIGS. 12A and 13A. By 2 hours, the probe is also being removed from circulation, with concentration first in the liver, and then in the intestine for excretion in the stool.

phenylbutyrate [PB]
effect on Pyro-PL-BHQ fluorescence in cells (DU145 prostate cells): fluorescence is increased

S=C([S-])OC1CC2CC1C1CCCC21.[K+] (stereo not drawn) [D609]
PC-PLC activity in tumor extracts as a function of D609 concentration (PC-PLC [1]): decrease as a function of D609 concentration | Inhibition of PC-PLC hydrolysis of Pyro-PL-BHQ at 500 μM D609 (PC-PLC [2]; 500 μM D609, 0.5 U PC-PLC): Complete inhibition | Fluorescence release from Pyro-PL-BHQ/PtdCho vesicles in presence of inhibitor (PC-PLC [2]; FIG. 3A): inhibited | IC50 (PC-PLC [2]; read-out: IC50 of inhibition of PC-PLC activity toward Pyro-PL-BHQ, 1 μM Pyro-PL-BHQ, MF 0.003 in egg-PtdCho dispersions, 0.5 U PC-PLC): 34 ± 8 µM | Ki (PC-PLC [2]; read-out: Ki (x-intercept of Km(app)/Vmax(app) vs. D609), Lineweaver-Burke plot of inhibition using 8, 50, 100 μM D609): 250 µM

C=Cc1c(C)c2cc3nc(c4c5[nH]c(cc6nc(cc1[nH]2)C(C)=C6CC)c(C)c5C(=O)C4)C(CCC(=O)NCCCCCC(=O)OCC(COP(=O)([O-])OCC[N+](C)(C)C)OC(=O)CCCCCNC(=O)CCC1c2nc(cc4[nH]c(cc5nc(cc6[nH]c7c2CC(=O)c7c6C)C(CC)=C5C)c(C=C)c4C)C1C)C3C (stereo not drawn) [PyroPyro-PL]
quenching efficiency (second Pyro as acceptor) [3]: ~4 fold

C=Cc1c(C)c2cc3nc(c4c5[nH]c(cc6nc(cc1[nH]2)C(C)=C6CC)c(C)c5C(=O)C4)C(CCC(=O)OC(COC(=O)CCCCCCCCCCCCCCC)COP(=O)(O)OCCN)C3C (stereo not drawn) [Pyro-PL]
tolerability [4]: well tolerated by mice | Pyro-PL mole fraction (MF) at which fluorescence plateaus (aggregation negligible) [5]: < 0.005 | organ fluorescence at 2 h ([6]; 2 h): majority of the fluorescence appears in the liver | organ fluorescence ex vivo at 24 h ([6]; IVIS, 24 h): major fluorescence persisted in the liver, kidney and digestive tract | time of accumulation in the tumor ([6]; Maestro system): ≤ 10 min
